Measured values published in ChEMBL document CHEMBL2074371, “The dietary polyphenol ellagic acid is a potent inhibitor of hOAT1” (Drug Metab Dispos, 2005).

Assays:
[1] = molecular target: T1, Solute carrier family 22 member 6 (Homo sapiens, UniProt Q4U2R8); test: TP_TRANSPORTER: inhibition of ochratoxin A uptake (ochratoxin A / 1uM) in Xenopus laevis oocytes; type: functional, cell-based, Oocyte
T1 sequence (Q4U2R8 whole entry): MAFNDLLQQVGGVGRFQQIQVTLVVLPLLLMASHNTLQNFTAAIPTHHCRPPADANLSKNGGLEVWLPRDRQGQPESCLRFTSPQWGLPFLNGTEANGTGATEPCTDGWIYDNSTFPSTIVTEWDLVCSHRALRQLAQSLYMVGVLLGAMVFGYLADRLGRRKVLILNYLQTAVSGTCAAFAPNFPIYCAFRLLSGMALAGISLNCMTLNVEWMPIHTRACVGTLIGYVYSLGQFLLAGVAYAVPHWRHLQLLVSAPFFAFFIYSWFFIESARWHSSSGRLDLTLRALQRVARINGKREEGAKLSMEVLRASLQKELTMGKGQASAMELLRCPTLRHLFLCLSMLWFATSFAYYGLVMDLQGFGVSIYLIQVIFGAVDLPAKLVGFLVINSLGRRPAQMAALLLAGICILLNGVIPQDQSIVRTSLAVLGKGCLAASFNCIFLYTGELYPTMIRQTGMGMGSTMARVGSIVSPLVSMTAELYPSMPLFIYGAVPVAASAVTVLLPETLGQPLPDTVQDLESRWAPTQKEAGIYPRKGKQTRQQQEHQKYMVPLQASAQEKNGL

[2] = molecular target: T2, Solute carrier family 22 member 11 (Homo sapiens, UniProt Q9NSA0); test: TP_TRANSPORTER: inhibition of p-aminohippurate uptake (p-aminohippurate / 10uM) by ellagic acid at a concentration of 35uM in Xenopus laevis oocytes; type: functional, cell-based; design: scale not given: the % may be the effect or the level left; details: oocyte
T2 sequence (Q9NSA0 whole entry): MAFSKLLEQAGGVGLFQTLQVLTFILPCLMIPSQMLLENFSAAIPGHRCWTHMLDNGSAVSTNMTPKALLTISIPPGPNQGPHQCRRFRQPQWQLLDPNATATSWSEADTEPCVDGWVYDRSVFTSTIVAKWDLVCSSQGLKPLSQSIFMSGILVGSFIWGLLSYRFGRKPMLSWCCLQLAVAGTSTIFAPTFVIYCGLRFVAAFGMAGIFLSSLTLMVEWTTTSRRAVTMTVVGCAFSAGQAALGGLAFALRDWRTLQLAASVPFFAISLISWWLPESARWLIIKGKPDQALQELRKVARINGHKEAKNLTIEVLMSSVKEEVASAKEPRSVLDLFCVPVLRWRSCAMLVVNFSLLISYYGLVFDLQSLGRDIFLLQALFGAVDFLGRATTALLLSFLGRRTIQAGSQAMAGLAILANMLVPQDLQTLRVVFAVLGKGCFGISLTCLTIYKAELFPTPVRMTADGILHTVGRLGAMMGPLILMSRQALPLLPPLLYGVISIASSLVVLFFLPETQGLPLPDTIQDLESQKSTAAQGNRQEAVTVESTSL

[3] = molecular target: T1, Solute carrier family 22 member 6; test: (§1) TP_TRANSPORTER: uptake in Xenopus laevis oocytes; type: functional, cell-based; details: oocyte
[4] = molecular target: T2, Solute carrier family 22 member 11; test: as §1; type: functional, cell-based; details: oocyte

**Q.** How did the IC50 [1] turn out when `O=c1oc2c(O)c(O)cc3c(=O)oc4c(O)c(O)cc1c4c23` [ELLAGIC ACID] was run?
**A.** 0.27 µM

**Q.** What about the Activity [2] of the same molecule?
**A.** 35%

**Q.** And the Activity [3]?
**A.** substrate [+]

**Q.** And the Activity [4]?
**A.** substrate [+]
